Measurements as given in ChEMBL document CHEMBL1158135, “Sulfated alkenes from the echinus Temnopleurus hardwickii” (J Nat Prod, 2006).
pIC50: −log10 of the molar value.

System: P388
Test: Cytotoxicity against mouse P388 cells after 72 hrs by MTT assay
Assay type: functional, cell-based
Conditions: P388, 72 h

CC(=O)CC(C)(C)N.CC(C)=CCC[C@@H](C)/C=C/CCOS(=O)(=O)O
pIC50: 3.54
